Laboratory results reported in patent US9266876B2 (Actelion Pharmaceuticals Ltd., priority 2012, dated 2016).
pIC50: −log10 of the molar value.

biological target: human CXCR3A (Homo sapiens (Human), UniProt P49682); assay: FLIPR assay; type: cell-based; details: CHO-K1 cells expressing the human CXCR3A coupled to Galpha(16); CXCL10 agonist 20 nM; Fluo-4-AM fluorescence; mean values if determined several times
Method: The bioactivity of compounds is tested in a fluorometric imaging plate reader (FLIPR: Molecular Devices) using engineered CHO-K1 cells expressing the human CXCR3A coupled to a G protein (Galpha(16)). Cells are plated the day prior to bioassay in F12 medium supplemented with 10% FBS and G418 and hygromycin antibiotics to maintain recombinant selection. At the day of bioassay, cells are washed and dye loaded for one hour with Fluo-4-AM (Invitrogen) in Hanks Balanced Salt Solution (Invitrogen), buffered with 20 mM Hepes at pH 7.4 and sodium bicarbonate (0.015%), containing 5 mM probenecid. […] Cells are washed free of excess dye and 60 microliter of wash buffer is added. Stock solutions of test compounds are made up at a concentration of 10 mM in DMSO, and serially diluted in dilution buffer to concentrations required for inhibition dose response curves. After a 10 minute incubation period at 37° C., 10 microliters of each compound dilution are transferred from a compound plate to the plate containing the recombinant cells in the FLIPR instrument according to the manufacturer's instructions. Following basal readings, 10 microliter CXCL10 agonist at a concentration of 20 nM (from Peprotech) is added, again using the FLIPR instrument. Changes in fluorescence are monitored before and after addition of the test compounds. Emission peak values above base level after CXCL10 addition are exported after base line subtraction. The program XLfit is used to fit the data to a single site dose response curve and to calculate IC50 values.

Chain of human CXCR3A (P49682 whole entry): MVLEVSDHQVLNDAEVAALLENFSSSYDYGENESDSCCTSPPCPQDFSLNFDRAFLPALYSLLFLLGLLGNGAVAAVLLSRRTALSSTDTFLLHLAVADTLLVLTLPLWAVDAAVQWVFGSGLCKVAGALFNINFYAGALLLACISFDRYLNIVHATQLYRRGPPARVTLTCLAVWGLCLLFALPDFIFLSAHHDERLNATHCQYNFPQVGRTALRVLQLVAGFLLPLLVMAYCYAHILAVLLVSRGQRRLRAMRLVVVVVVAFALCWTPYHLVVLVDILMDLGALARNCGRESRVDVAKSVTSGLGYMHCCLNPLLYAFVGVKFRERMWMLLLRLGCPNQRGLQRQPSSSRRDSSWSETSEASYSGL

SMILES | pIC50
O=C(Cc1cn2nc(Cl)ccc2n1)N1CCN(c2scnc2-c2nc3ccccc3[nH]2)CC1 [Example 8, 1-{4-[4-(1H-Benzoimidazol-2-yl)-thiazol-5-yl]-piperazin-1-yl}-2-(6-chloro-imidazo[1,2-b]pyridazin-2-yl)-ethanone] | 6.41
C[C@@H]1CN(c2scnc2-c2nc3cc(C(C)(C)C)ccc3[nH]2)CCN1C(=O)Cn1cnc2cccnc21 [Example 86, 1-{(R)-4-[4-(5-tert-Butyl-1H-benzoimidazol-2-yl)-thiazol-5-yl]-2-methyl-piperazin-1-yl}-2-imidazo[4,5-b]pyridin-3-yl-ethanone] | 9.00
C[C@@H]1CN(c2scnc2-c2nc3c(C(F)(F)F)cccc3[nH]2)CCN1C(=O)Cn1cnc2cccnc21 [Example 95, 2-Imidazo[4,5-b]pyridin-3-yl-1-{(R)-2-methyl-4-[4-(4-trifluoromethyl-1H-benzoimidazol-2-yl)-thiazol-5-yl]-piperazin-1-yl}-ethanone] | 8.40
O=C(CN1CCOc2ccccc21)N1CCN(c2scnc2-c2nc3ccccc3[nH]2)CC1 [Example 106, 1-{4-[4-(1H-Benzoimidazol-2-yl)-thiazol-5-yl]-piperazin-1-yl}-2-(2,3-dihydro-benzo[1,4]oxazin-4-yl)-ethanone] | 7.00
C[C@@H]1CN(c2scnc2-c2nc3cc(Cl)c(C(F)(F)F)cc3[nH]2)CCN1C(=O)Cn1cnc2cccnc21 [Example 93, 1-{(R)-4-[4-(5-Chloro-6-trifluoromethyl-1H-benzoimidazol-2-yl)-thiazol-5-yl]-2-methyl-piperazin-1-yl}-2-imidazo[4,5-b]pyridin-3-yl-ethanone] | 9.00
Cc1cc2cccnc2n1CC(=O)N1CCN(c2scnc2-c2nc3ccccc3[nH]2)CC1 [Example 66, 1-{4-[4-(1H-Benzoimidazol-2-yl)-thiazol-5-yl]-piperazin-1-yl}-2-(2-methyl-pyrrolo[2,3-b]pyridin-1-yl)-ethanone] | 7.51
Cc1cn(CC(=O)N2CCN(c3scnc3-c3nc4ccccc4[nH]3)CC2)c2ccc(F)cc12 [Example 63, 1-{4-[4-(1H-Benzoimidazol-2-yl)-thiazol-5-yl]-piperazin-1-yl}-2-(5-fluoro-3-methyl-indol-1-yl)-ethanone] | 7.89
Cc1nc2ccccn2c1CC(=O)N1CCN(c2scnc2-c2nc3ccccc3[nH]2)CC1 [Example 9, 1-{4-[4-(1H-Benzoimidazol-2-yl)-thiazol-5-yl]-piperazin-1-yl}-2-(2-methyl-imidazo[1,2-a]pyridin-3-yl)-ethanone] | 7.05
O=C(Cn1ccc(C(F)(F)F)n1)N1CCN(c2scnc2-c2nc3ccccc3[nH]2)CC1 [Example 5, 1-{4-[4-(1H-Benzoimidazol-2-yl)-thiazol-5-yl]-piperazin-1-yl}-2-(3-trifluoromethyl-pyrazol-1-yl)-ethanone] | 7.48
O=C(Cn1ccc2cccnc21)N1CCN(c2sc(Cl)nc2-c2nc3ccccc3[nH]2)CC1 [Example 42, 1-{4-[4-(1H-Benzoimidazol-2-yl)-2-chloro-thiazol-5-yl]-piperazin-1-yl}-2-pyrrolo[2,3-b]pyridin-1-yl-ethanone] | 6.26
Cc1cn(CC(=O)N2CCN(c3scnc3-c3nc4ccccc4[nH]3)CC2)c2ncccc12 [Example 67, 1-{4-[4-(1H-Benzoimidazol-2-yl)-thiazol-5-yl]-piperazin-1-yl}-2-(3-methyl-pyrrolo[2,3-b]pyridin-1-yl)-ethanone] | 8.05
C[C@@H]1CN(c2scnc2-c2nc3cc(Cl)c(F)cc3[nH]2)CCN1C(=O)Cn1ccc2cccnc21 [Example 26, 1-{(R)-4-[4-(5-Chloro-6-fluoro-1H-benzoimidazol-2-yl)-thiazol-5-yl]-2-methyl-piperazin-1-yl}-2-pyrrolo[2,3-b]pyridin-1-yl-ethanone] | 9.00
C[C@H]1CN(c2scnc2-c2nc3ccccc3[nH]2)CCN1C(=O)Cn1cnc2cccnc21 [Example 47, 1-{(S)-4-[4-(1H-Benzoimidazol-2-yl)-thiazol-5-yl]-2-methyl-piperazin-1-yl}-2-imidazo[4,5-b]pyridin-3-yl-ethanone] | 7.74
COc1ccccc1-c1nc(-c2nc3ccccc3[nH]2)c(N2CCN(C(=O)Cn3cnc4cccnc43)[C@H](C)C2)s1 [Example 82, 1-{(R)-4-[4-(1H-Benzoimidazol-2-yl)-2-(2-methoxy-phenyl)-thiazol-5-yl]-2-methyl-piperazin-1-yl}-2-imidazo[4,5-b]pyridin-3-yl-ethanone] | 7.02
COc1cc2nc(-c3ncsc3N3CCN(C(=O)Cn4c(=O)n(C)c5ccccc54)CC3)[nH]c2cc1OC [Example 36, 1-(2-{4-[4-(5,6-Dimethoxy-1H-benzoimidazol-2-yl)-thiazol-5-yl]-piperazin-1-yl}-2-oxo-ethyl)-3-methyl-1,3-dihydro-benzoimidazol-2-one] | 7.77
Cc1nc(-c2nc3ccccc3[nH]2)c(N2CCN(C(=O)Cn3ccc4cccnc43)CC2)s1 [Example 40, 1-{4-[4-(1H-Benzoimidazol-2-yl)-2-methyl-thiazol-5-yl]-piperazin-1-yl}-2-pyrrolo[2,3-b]pyridin-1-yl-ethanone] | 7.70
C[C@@H]1CN(c2scnc2-c2nc3ccccc3[nH]2)CCN1C(=O)Cc1ccc2cccnc2c1 [Example 120, 1-{(R)-4-[4-(1H-Benzoimidazol-2-yl)-thiazol-5-yl]-2-methyl-piperazin-1-yl}-2-quinolin-7-yl-ethanone] | 7.80
O=C(Cn1cnc2cccnc21)N1CCCN(c2scnc2-c2nc3ccccc3[nH]2)CC1 [Example 45, 1-{4-[4-(1H-Benzoimidazol-2-yl)-thiazol-5-yl]-[1,4]diazepan-1-yl}-2-imidazo[4,5-b]pyridin-3-yl-ethanone] | 7.32
Cc1nc(CC(=O)N2CCN(c3scnc3-c3nc4ccccc4[nH]3)CC2)cs1 [Example 7, 1-{4-[4-(1H-Benzoimidazol-2-yl)-thiazol-5-yl]-piperazin-1-yl}-2-(2-methyl-thiazol-4-yl)-ethanone] | 6.29

Other lines, results leading:

pIC50 | SMILES
7.38 | C[C@@H]1CN(c2scnc2-c2nc3ccccc3[nH]2)CCN1C(=O)Cc1ccc2nccnc2c1 [Example 121, 1-{(R)-4-[4-(1H-Benzoimidazol-2-yl)-thiazol-5-yl]-2-methyl-piperazin-1-yl}-2-quinoxalin-6-yl-ethanone]
7.19 | C[C@@H]1CN(c2scnc2-c2nc3ccccc3[nH]2)CCN1C(=O)Cn1cccc2oc(=O)nc1-2 [Example 156, 4-(2-{(R)-4-[4-(1H-Benzoimidazol-2-yl)-thiazol-5-yl]-2-methyl-piperazin-1-yl}-2-oxo-ethyl)-4H-oxazolo[4,5-b]pyridin-2-one]
5.52 | O=C(Cn1cnc2cccnc21)N1CCN(c2ncsc2-c2nc3ccccc3[nH]2)CC1 [compound 114, 1-{4-[5-(1H-Benzoimidazol-2-yl)-thiazol-4-yl]-piperazin-1-yl}-2-imidazo[4,5-b]pyridin-3-yl-ethanone, reference compound]
7.52 | Cc1nc(C)n(CC(=O)N2CCN(c3sc(C(F)(F)F)nc3-c3nc4ccc(N5CCCC5=O)cc4[nH]3)C[C@H]2C)n1 [Example 235, 1-[2-(5-{(R)-4-[2-(3,5-Dimethyl-[1,2,4]triazol-1-yl)-acetyl]-3-methyl-piperazin-1-yl}-2-trifluoromethyl-thiazol-4-yl)-3H-benzoimidazol-5-yl]-pyrrolidin-2-one]
7.16 | C[C@@H]1CN(c2scnc2-c2nc3ccccc3[nH]2)CCN1C(=O)Cc1cccc2[nH]ccc12 [Example 123, 1-{(R)-4-[4-(1H-Benzoimidazol-2-yl)-thiazol-5-yl]-2-methyl-piperazin-1-yl}-2-(1H-indol-4-yl)-ethanone]
8.40 | C[C@@H]1CN(c2scnc2-c2nc3ccccc3[nH]2)CCN1C(=O)CN1C(=O)C(=O)c2ccccc21 [Example 157, 1-(2-{(R)-4-[4-(1H-Benzoimidazol-2-yl)-thiazol-5-yl]-2-methyl-piperazin-1-yl}-2-oxo-ethyl)-1H-indole-2,3-dione]
7.33 | C[C@@H]1CN(c2scnc2-c2nc3ccccc3[nH]2)CCN1C(=O)Cc1c[nH]c2ccc(F)cc12 [Example 128, 1-{(R)-4-[4-(1H-Benzoimidazol-2-yl)-thiazol-5-yl]-2-methyl-piperazin-1-yl}-2-(5-fluoro-1H-indol-3-yl)-ethanone]
8.22 | C[C@@H]1CN(c2scnc2-c2nc3ccccc3[nH]2)CCN1C(=O)Cc1csc2ccccc12 [Example 133, 2-Benzo[b]thiophen-3-yl-1-{(R)-4-[4-(1H-benzoimidazol-2-yl)-thiazol-5-yl]-2-methyl-piperazin-1-yl}-ethanone]
6.82 | C[C@@H]1CN(c2scnc2-c2nc3ccccc3[nH]2)CCN1C(=O)Cc1ccc2c(c1)NC(=O)CO2 [Example 122, 6-(2-{(R)-4-[4-(1H-Benzoimidazol-2-yl)-thiazol-5-yl]-2-methyl-piperazin-1-yl}-2-oxo-ethyl)-4H-benzo[1,4]oxazin-3-one]
7.59 | C[C@@H]1CN(c2scnc2-c2nc3ccccc3[nH]2)CCN1C(=O)Cc1ccc2c(c1)CCO2 [Example 136, 1-{(R)-4-[4-(1H-Benzoimidazol-2-yl)-thiazol-5-yl]-2-methyl-piperazin-1-yl}-2-(2,3-dihydro-benzofuran-5-yl)-ethanone]
